Entries after “also recorded” stand apart in the source; their conditions may differ.
Columns and labels:
[1] = test system: normal hematopoietic bone marrow cells; assay: WST-1 cell proliferation assay, normal bone marrow cells; assay type: cell-based; details: Homo sapiens
Experimental: Bone marrow aspirate or whole blood samples were received in sodium ethylenediaminetetraacetate (EDTA) tubes, and diluted 1:1 with phosphate-buffered saline (PBS). Cells were isolated from diluted samples by density separation in lymphocyte separation medium (Corning Cellgro®) with centrifugation at 400×g for 30 minutes with no brake. Cells from healthy donor whole blood were isolated in similar manner. N01mal bone marrow mononuclear cells (NBM) were purchased from Lonza®. Viable cell numbers were calculated using trypan blue exclusion. All primary AML cells and cell lines were grown in 37° C. with 5% CO2 atmosphere in Roswell Park Memorial institute (RPMI) 1640 medium (Life Technologies®) supplemented with heat-inactivated 10% (v/v) fetal bovine serum. […]
Primary AML cells from patients and cell lines were seeded into 96-well plates the afternoon prior to treatment. […] In order to quantitate proliferation of metabolically active cells, plates were incubated for 72 hours for cell lines and 48 hours for primary AML cells prior to addition of water-soluble tetrazolium (WST-1) (Clontech®). Plates were read after four additional hours of incubation at 37° C. using a Bio-Tek Synergy® HT plate reader (Bio-Tele®). Data were analyzed and graphed using GraphPad Prism® Software (GraphPad®). […] IC50 values were calculated as mean±standard deviation from at least two independent experiments. […]

THP-1 cells [2] = assay: Clonogenic assay, THP-1; assay type: cell-based, human; details: 24 hours exposure, then methylcellulose; p<0.05 at 1, 10 and 100 μM
Experimental: MOLM-14 and THP-1 were treated with either DMSO control or mono-aziridine dimeric naphthoquinone or bis-aziridinyl dimeric naphthoquinone compounds at concentrations of 0.1, 1, 10 and 100 μM (micromolar) for 24 hours. The cells then were washed with growth medium and resuspended in growth medium and methylcellulose with or without DMSO or the treatment compounds. After 7 or 13 days (MOLM-14 or THP-1, respectively), treatment was terminated by addition of 1.0 mg/mL, iodonitrotetrazolium chloride (INT; Sigma Aldrich®) and read 24 hours later with an automated colony counter (Symbiosis®). Data were analyzed and graphed using GraphPad Prism® software.
Next, the effect of bis-aziridinyl-dimeric naphthoquinone Compound 101 on AML cell survival and viability. […] For colony formation assays, cell lines were treated with the indicated doses of aziridinyl dimeric naphthoquinone Compound 101 for 24 hours, and subsequently washed and plated in methylcellulose to observe clonogenic potential after 7-10 days. See above for additional comments on the methods.
Clonogenic inhibition was […] when bis-aziridinyl dimeric naphthoquinone was removed from cells after 24 hours of treatment. The bis-aziridinyl dimeric naphthoquinone was able to reduce clonogenicity with just a 24-hour exposure prior to plating.

MOLM-14 cells [3] = assay: Cell survival assay (trypan blue exclusion), MOLM-14; assay type: cell-based, human; details: 72 hours; at 0.1, 1, 10 and 100 μM
Experimental: MOLM-.14 and THP-1 cells were seeded in 96-well plates and treated with DMSO, mono- and bis-aziridinyl dimeric naphthoquinone compounds, or dimethylamine dimeric naphthoquinone Compound 114 as previously described. Cells were incubated for 72 hours, and then counted using trypan blue exclusion on the Countess® automated cell counter (Life Technologies®). Cell counts were performed in duplicates, and the averages were graphed using GraphPad Prism® software (GraphPad®).
Cell survival was determined using trypan blue exclusion, in which cells are plated and the following day treated similarly to the proliferation assay. The bis-aziridinyl dimeric naphthoquinone Compound 101 was effective in decreasing cell number at increasing concentrations of compound in MOLM-14 and THP1 cells.

MOLM-14 cells [4] = assay: Cellular reactive oxygen species (H2DCFA), MOLM-14; assay type: cell-based, human
Experimental: (§1) MOLM-14 and THP-1 cells in logarithmic growth phase were centrifuged and resuspended in PBS at one million cells per milliliter (mL) of medium. Cells were preloaded with 2′,7′-dichlorodihydrofluorescein diacetate (H2DCFA, Life Technologies®) at a final concentration of 2 μM and incubated at 37° C. in the dark for 25 minutes. Cells were centrifuged and resuspended at one million per mL in phenol red-free RPMI plus 10% FBS and incubated at 37° C. in the dark for 25 minutes. Treatments were prepared at 2× concentrations of […] in complete phenol red-free RPMI and added to each well to yield 1× concentrations of 20, 10, 2, or 0.5 μM. Cells were incubated in the dark at 37° C. and measurement of ROS was performed with a Bio-tek® Synergy HT plate reader at various time points post treatment.
(§2) In order to elucidate the mechanisms by which the bis-aziridinyl naphthoquinone exerts anti-leukemic activity, the amount of reactive oxygen species (ROS) that cells produced upon treatment with Compound 101 was examined. MOLM-14 and THP-1 cells were loaded with the ROS dye H2DCFA and subsequently plated into 96-well plates. Cells were treated with vehicle (negative control), Compound 101 in varying concentrations, or hydrogen peroxide (positive control), and observed over a period of 2-6 hours. The relative fluorescence units (RFU) were read at various time points. […]

THP-1 cells [5] = assay: Cellular reactive oxygen species (H2DCFA), THP-1; assay type: cell-based, human
Experimental: as §1, §2

[6] = Safety and tolerability in NSG mice; assay type: in vivo; details: female NSG mice; 5, 10 or 15 mg/kg intraperitoneal daily for 5 days, one week observation
Experimental: Considering the significant antineoplastic, activity of Compound 101, the safety and tolerability of this agent was tested in vivo on female NSG nice. Groups of three female NOD.Cg-Prkdc^scid Il2rg^tm1Wjl/SzJ (NSG) mice were tested with 5, 10 or 15 mg/kg of Compound 101 delivered by intraperitoneal injection daily for 5 consecutive days, and the mice monitored for one additional week. […] An asterisk (*) denotes days of dosing.

With O=C1C(C2=C(N3CC3)C(=O)c3ccccc3C2=O)=C(N2CC2)C(=O)c2ccccc21 [Compound 101, 3,3′-di(aziridin-1-yl)-[2,2′-binaphthalene]-1,1 4,4′-tetrone] the IC50 [1] was 3.37 ± 1.27 µM, the “clonogenic activity (colony formation), THP-1” value (THP-1 cells [2]) was “marked reduction in clonogenic activity; also recorded: inhibits clonogenicity” and the “viable cells, MOLM-14” value (MOLM-14 cells [3]) was “statistically significant (p<0.05) reduction in viable cells”. The “time to production of ROS, MOLM-14” value (MOLM-14 cells [4]) was ≤ 2 h, the “ROS production, MOLM-14” value (MOLM-14 cells [4]; 0.5-20 μM, 2-6 hours) was “dose-dependent increase in ROS production” and the “time to production of ROS, THP-1” value (THP-1 cells [5]) was ≤ 2 h. The “ROS production, THP-1” value (THP-1 cells [5]; 0.5-20 μM, 2-6 hours) was “dose-dependent increase in ROS production”, the “mean body weight loss” value [6] was ≤ 10% and the tolerability [6] was “tolerated the compound well with no weight loss observed”.
